Measurements as given in patent US9562053B2, “Benzo-fused heterocyclic derivatives useful as agonists of GPR120” (Janssen Pharmaceutica NV, priority 2013, dated 2017).

Target: T1, Human GPR120 short form (Homo sapiens, UniProt Q5NUL3)
T1 construct: expressed in transfected cells
T1 sequence (Q5NUL3 1-361): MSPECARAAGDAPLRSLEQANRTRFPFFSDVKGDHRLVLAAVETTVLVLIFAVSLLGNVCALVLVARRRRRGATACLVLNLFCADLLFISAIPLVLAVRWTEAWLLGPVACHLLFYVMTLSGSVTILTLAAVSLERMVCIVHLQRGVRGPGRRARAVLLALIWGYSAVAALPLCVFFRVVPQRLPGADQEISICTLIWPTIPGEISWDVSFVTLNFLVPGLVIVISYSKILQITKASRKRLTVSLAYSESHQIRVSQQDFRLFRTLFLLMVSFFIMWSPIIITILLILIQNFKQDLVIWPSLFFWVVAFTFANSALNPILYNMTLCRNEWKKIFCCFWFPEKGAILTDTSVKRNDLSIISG
Test: Human GPR120 in Calcium Flux Assay, Procedure Calcium B (4200 cells/well)
Type: cell-based
Description: This in vitro assay serves to assess test compound agonist activity against the short splice variant (SVS with Accession number NM_001195755.1 confirmed by sequencing data) of the GPR120 receptor. The Human Short splice variant #2 (NM_001195755.1) is missing an in-frame coding exon compared to variant 1 (the Human Long splice variant NM_181745.3), resulting in a shorter isoform (GPR120-S) lacking a 16 aa protein segment compared to isoform GPR120-L. The assay platform utilizes HEK-293 cells stably transfected to express the Human GPR120 short form. These cells are first loaded with the Ca^+2 sensitive dye, Fluo-4 NW. Upon stimulation, intracellular released Ca^+2 can bind to the dye and alter its fluorescence intensity. This increase in fluorescence signal, and thus the flux in intracellular [Ca^+2], is detected and quantitated by fluorescence imaging using a FLIPR reader. The effect of the agonist is measured as a function of concentration and used to calculate an EC50 based upon a response curve.
In this procedure 4200 cells/well were employed.
A Human GPR120 clone (Genbank accession number NM_001195755.1) was placed into the pcDNA3.1 mammalian expression vector carrying the neomycin resistance gene. A stable mammalian cell was generated by placing the above clone into a HEK293 background. Clonal cells responding to long chain fatty acids had expression levels of GPR120 confirmed by RT-qPCR. Human HEK-GPR120 cells were cultured in Dulbecco's Modified Eagle's Medium (DMEM)/F12 medium supplemented with 10% fetal bovine serum (FBS), 1% L-Glutamine and 1% penicillin/streptomycin and 0.5 mg/ml G-418. Cells were split 2 times a week to keep the cells in the log-phase growth.
In preparation for the assay, HEK cells stably transfected with Human GPR120 (2.5K cells per well in 25 uL growth medium) were seeded into 384-well plates and then incubated overnight (37° C., 5% CO2). The next day, the media was changed to 20 μl assay buffer and the cell starved for 1 h at 37° C. The dye loading solution (2× dye) was prepared using 10 ml assay buffer, 100 μl of 250 mM probenecid, 1 bottle of Component A, and 20 μl of dye in DMSO. Twenty μl of the 2× dye loading buffer was then added to each well. The plates were incubated at 37° C. for 30 min, then at room temperature for an additional 15 minutes, before performing the assay on FLIPR.
Test compounds were prepared in assay buffer (2 μl of test compound+198 μl assay buffer, final DMSO in assay plate is 0.2%) at the desired concentration, more particularly at 100 μM, 50 μM, 25 μM, 12.5 μM, 6.25 μM, 3.125 μM, 1.562 μM, 0.781 μM, 0.391 μM, 0.195 μM, 0.098 μM, 0.049 μM, 0.024 μM and 0.012 μM.
The assay was performed on a FLIPR plate reader using the following parameters. Baseline was read for 10 seconds at 1 sec intervals. The program was set to transfer 10 μL of ligand from compound plate to cell plate after baseline reading. Aspiration was executed at: 10 μl/sec speed, 4.6 μl height; Dispensing was executed at: 30 μl/sec speed, 45 μl height. After compound addition, each well was read for 300 sec, with measurements collected at 1 sec intervals.
The kinetic data from the FLIPR was based upon a 5 minute window for data collection. The fluorescence of each sample well was used for individual calculations of a normalized RFU value, which was defined as maximum response minus the minimum response. The normalized fluorescence reading (RFU) was calculated as follows: RFU=Fmax−Fmin
The data were fitted to a sigmoidal dose-response curve with a variable Hill slope (<2) using nonlinear regression with GraphPad Prism 5.0 to calculate the EC50 values. The Fitting Equation was: Y=Bottom+(Top−Bottom)/(1+10^((LogEC50−X)*HillSlope)), where X is the log of the concentration and Y is the response.

EC50: 12 nM
SMILES: Cc1cc2cc(OC(F)(F)F)cc(COc3ccc(CCC(=O)O)c(C)c3C)c2o1 [Compound 36, 3-(2,3-Dimethyl-4-{[2-methyl-5-(trifluoromethoxy)-1-benzofuran-7-yl]methoxy}phenyl)propanoic acid]
